In patent publication US9163030B2 (priority 2012, dated 2015):
Read-outs that look alike come from different tables or passages of the source.

Assays:
DOR [1] = biological target: T1, DOR (Mus musculus, UniProt P32300); experiment: [35S]GTP-γ-S binding assay, NG108-15 cells; format: biochemical; conditions: for functional activity profile at DOR: in words
T1 construct: endogenous in cells; host or cells: NG108-15 neuroblastoma x glioma cells

DOR [2] = biological target: T2, DOR (Homo sapiens, UniProt P41143); experiment: Opioid binding assay, displacement of [3H]DADLE, hDOR-CHO cell membranes
T2 construct: expressed in transfected cells; host or cells: CHO (hDOR-CHO)
T2 sequence (P41143 whole entry): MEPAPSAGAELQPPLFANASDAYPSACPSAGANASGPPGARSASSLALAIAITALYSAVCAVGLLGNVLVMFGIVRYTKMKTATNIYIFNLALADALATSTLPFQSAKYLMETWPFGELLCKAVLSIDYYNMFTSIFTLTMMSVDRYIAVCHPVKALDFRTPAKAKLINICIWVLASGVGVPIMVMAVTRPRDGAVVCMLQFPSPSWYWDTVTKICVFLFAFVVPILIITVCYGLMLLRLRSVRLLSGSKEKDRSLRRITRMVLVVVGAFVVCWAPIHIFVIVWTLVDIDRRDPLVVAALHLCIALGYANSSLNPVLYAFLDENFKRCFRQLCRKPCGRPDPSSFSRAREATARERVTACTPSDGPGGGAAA

KOR [3] = biological target: T3, KOR (Homo sapiens, UniProt P41145); experiment: [35S]GTP-γ-S binding assay, hKOR-CHO cells; format: biochemical
T3 construct: expressed in transfected cells; host or cells: CHO (hKOR-CHO)
T3 sequence (P41145 whole entry): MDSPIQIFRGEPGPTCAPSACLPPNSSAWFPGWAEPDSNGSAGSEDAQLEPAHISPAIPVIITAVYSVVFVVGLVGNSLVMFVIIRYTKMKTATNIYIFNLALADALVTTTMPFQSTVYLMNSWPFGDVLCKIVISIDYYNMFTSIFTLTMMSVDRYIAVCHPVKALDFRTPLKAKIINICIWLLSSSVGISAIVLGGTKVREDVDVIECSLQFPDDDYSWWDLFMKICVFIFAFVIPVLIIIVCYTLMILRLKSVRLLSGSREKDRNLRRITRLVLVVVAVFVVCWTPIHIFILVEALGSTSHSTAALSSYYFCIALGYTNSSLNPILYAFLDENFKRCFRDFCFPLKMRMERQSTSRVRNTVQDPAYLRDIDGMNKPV

mice [4] = experiment: Tolerance regimen, repeated icv injection, warm-water tail-withdrawal; conditions: repeated injection paradigm
MOR [5] = biological target: T4, MOR (Homo sapiens, UniProt P35372); experiment: Opioid binding assay, displacement of [3H]DAMGO, hMOR-CHO cell membranes
T4 construct: expressed in transfected cells; host or cells: CHO (hMOR-CHO)
T4 sequence (P35372 whole entry): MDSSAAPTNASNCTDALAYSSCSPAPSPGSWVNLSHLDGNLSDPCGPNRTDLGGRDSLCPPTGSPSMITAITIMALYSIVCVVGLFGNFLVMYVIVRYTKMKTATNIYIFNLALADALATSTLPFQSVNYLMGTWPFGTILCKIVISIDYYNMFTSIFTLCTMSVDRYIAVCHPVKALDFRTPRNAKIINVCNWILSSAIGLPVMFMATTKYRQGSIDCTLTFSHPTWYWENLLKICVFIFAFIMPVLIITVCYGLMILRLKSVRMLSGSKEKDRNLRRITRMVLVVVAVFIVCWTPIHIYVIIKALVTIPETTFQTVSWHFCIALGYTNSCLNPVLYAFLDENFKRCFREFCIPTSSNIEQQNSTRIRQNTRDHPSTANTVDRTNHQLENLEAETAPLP

[6] = biological target: T5, CHO cells co-expressing MOR and DOR (dimer cells) (UniProt P32300+P35372); format: cell-based, human μ / mouse δ
T5 construct: cMyc (N); expressed in transfected cells; host or cells: CHO (cMyc-mδ-HμCHO cells)
T5 sequence (P35372 whole entry): as above
T5 sequence (P32300 whole entry): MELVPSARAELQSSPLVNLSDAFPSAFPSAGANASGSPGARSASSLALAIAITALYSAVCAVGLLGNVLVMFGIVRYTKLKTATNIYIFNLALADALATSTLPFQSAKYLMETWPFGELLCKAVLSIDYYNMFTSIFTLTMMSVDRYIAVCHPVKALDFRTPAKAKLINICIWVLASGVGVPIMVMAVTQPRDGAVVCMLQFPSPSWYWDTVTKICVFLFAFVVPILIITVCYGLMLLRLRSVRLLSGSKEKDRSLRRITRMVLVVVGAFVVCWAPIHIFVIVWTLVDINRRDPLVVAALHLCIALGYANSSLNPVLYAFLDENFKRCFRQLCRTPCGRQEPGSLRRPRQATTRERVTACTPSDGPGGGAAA

mice [7] = experiment: 55° C. warm-water tail-withdrawal test; format: in vivo, mouse; conditions: for Antinociceptive A50 Values / antinociceptive effect: icv; for Antinociceptive A50 Values: calculated at time of peak effect; for antinociceptive effect: in words; for effect of naloxone pretreatment on antinociceptive effect: naloxone 10 mg/kg ip, -10 min, icv test compound
MOR [8] = biological target: T4, MOR; experiment: [35S]GTP-γ-S binding assay, hMOR-CHO cells; format: biochemical; conditions: for Emax: normalized to stimulation by DAMGO, read-out: agonist activity MOR Emax
[9] = biological target: T5, CHO cells co-expressing MOR and DOR (dimer cells); experiment: cell-based; format: cell-based, human μ / mouse δ; set-up: Emax: dose or concentration left out as unconfirmed; conditions: for Emax: CHO, read-out: decrease of the Emax value for DAMGO-mediated inhibition of forskolin-stimulated cAMP
KOR [10] = biological target: T3, KOR; experiment: biochemical; format: binding
MOR [11] = conditions: brain tissue membranes, included for comparison; read-out: Ki ± SEM MOR; cited from earlier work
KOR [12] = conditions: brain tissue membranes, included for comparison; read-out: Ki ± SEM KOR; cited from earlier work
DOR [13] = conditions: brain tissue membranes, included for comparison; read-out: Ki ± SEM DOR; cited from earlier work
[14] = stimulation of [35S]GTP-γ-S binding, no stim = no stimulation

T1 sequence (P32300 whole entry): as above

## CN1CCC23c4c5ccc(O)c4OC2c2ncc(-c4ccc(Cl)cc4)cc2CC3(OCCCc2ccccc2)C1C5 (stereo not drawn) [Compound 17h, 5′-(4-Chlorophenyl)-6,7-didehydro-4,5α-epoxy-3-hydroxy-17-methyl-14-(3-phenylpropoxy)pyrido[2′,3′:6,7]morphinan]
DOR [1]
  functional activity profile at DOR: weak to potent partial agonist activity at DOR
DOR [1]; read-out: agonist activity DOR Emax
  Emax: 85%
DOR [2]
  Ki: 1.04 ± 0.08 nM
KOR [3]; [14]
  agonist activity KOR EC50: no stim
Mice [4]
  toxicity on repeated administration: undue toxicity
MOR [5]
  Ki: 0.54 ± 0.04 nM
MOR [5]; ratio of Ki values, CHO membranes
  selectivity ratio MOR/DOR: 0.52
[6]
  cAMP superactivation (forskolin-stimulated cAMP accumulation after chronic treatment): effects similar to that of morphine
  naloxone-induced cAMP overshoot: effects similar to that of morphine
Mice [7]
  Antinociceptive A50 Values: 0.23 nmol
  antinociceptive effect: full antinociceptive effects
  effect of naloxone pretreatment on antinociceptive effect: blocked by naloxone pretreatment
MOR [8]
  EC50: 2.15 nM
  Emax: 125 ± 2%
[9]
  increase in the EC50 value for DAMGO-mediated inhibition of forskolin-stimulated cAMP accumulation (tolerance): ~7 fold
  Emax: 20%
KOR [10]
  selectivity ratio KOR/DOR: 1.5
KOR [10]; read-out: Ki ± SEM KOR
  Ki: 1.53 ± 0.1 nM

## CN1CCC23c4c5ccc(O)c4OC2c2ncc(-c4ccc(Cl)cc4)cc2CC3(O)C1C5 (stereo not shown) [Compound 9]
MOR [11]
  Ki: 230 ± 10 nM
KOR [12]
  Ki: 468 ± 17 nM
DOR [13]
  Ki: 3.9 ± 0.2 nM

## Oc1ccc2c3c1OC1c4ncc(-c5ccc(Cl)cc5)cc4CC4(OCCCc5ccccc5)C(C2)N(CC2CC2)CCC314 (stereo not drawn) [Compound 17d, 5′-(4-Chlorophenyl)-17-(cyclopropylmethyl)-6,7-didehydro-4,5α-epoxy-3-hydroxy-14-(3-phenylpropoxy)pyrido[2′,3′:6,7]morphinan]
DOR [1]
  functional activity profile at DOR: antagonists at DOR
DOR [1]; shift in EC50 of standard agonist
  antagonist activity DOR Ke: 0.091 nM
DOR [1]; [14]
  agonist activity DOR EC50: no stim
KOR [3]; in words
  functional activity profile at KOR: devoid of agonist activity at KOR
[6]; 20 h treatment, washed, forskolin/IBMX 100 μM/500 μM
  cAMP superactivation (forskolin-stimulated cAMP accumulation after chronic treatment): did not
[6]; 20 h treatment, washed, forskolin/IBMX plus 10 μM naloxone
  naloxone-induced cAMP overshoot: did not
Mice [7]
  Antinociceptive A50 Values: 0.35 nmol
  antinociceptive effect: full antinociceptive effects
  effect of naloxone pretreatment on antinociceptive effect: blocked by naloxone pretreatment
MOR [8]; in words
  functional activity profile at MOR: agonist profile at MOR
MOR [8]
  Emax: 72%
[9]
  increase in the EC50 value for DAMGO-mediated inhibition of forskolin-stimulated cAMP accumulation (tolerance): did not produce either tolerance
  Emax: 40%
